Results reported in patent US20090246276A1, “Pharmaceutical Compositions” (priority 2008, published 2009).
Where a name gives a salt, the structure may show the parent alone.

Columns and labels:
[1] = Solubility (37° C.) in 0.1N HCl, pH 4.5, pH 6.8; type: physicochemical; set-up: Solubility (37° C.): unit not given here; conditions: for Solubility (37° C.): hydrochloride; for solubility: 37 °C
[2] = In-vitro dissolution, 900 ml medium (0.1N HCl, pH 4.5 acetate buffer, pH 6.8 or pH 7.5 phosphate buffer), USP Apparatus 1, 75 rpm, 37° C.; type: physicochemical; conditions: for % Released (Bi-layer Tablets): Example 16 coated bi-layer tablet; for % Released (Homogenous Tablets): Example 19 tablet; for % Release: 900 ml Phosphate Buffer, pH 7.5, Apparatus 1, 75 rpm, 37 C.
Description: The dissolution profile of the above pharmaceutical composition was determined under the dissolution conditions described below in Tables 1A, 1B, and 1C.

[3] = Example 22: effect of bupropion (Wellbutrin XL 300 mg) on steady-state pharmacokinetics of citalopram (Celexa 20 mg)
[4] = steady-state dosing of Celexa 20 mg alone
[5] = steady-state dosing of Celexa 20 mg plus Wellbutrin XL 300 mg

CC(NC(C)(C)C)C(=O)c1cccc(Cl)c1 (stereo not drawn) [Bupropion HCl, bupropion hydrochloride]
Solubility (37° C.) ([1]; 0.1N HCl): 416
Solubility (37° C.) ([1]; pH 4.5): 437
Solubility (37° C.) ([1]; pH 6.8): 437
% Released (Bi-layer Tablets) ([2]; 0.1N HCl, 1 hr): 16.36%
% Released (Bi-layer Tablets) ([2]; 0.1N HCl, 2 hr): 33.56%
% Released (Bi-layer Tablets) ([2]; 0.1N HCl, 3 hr): 49.54%
% Released (Bi-layer Tablets) ([2]; 0.1N HCl, 4 hr): 65.00%
% Released (Bi-layer Tablets) ([2]; 0.1N HCl, 5 hr): 79.63%
% Released (Bi-layer Tablets) ([2]; 0.1N HCl, 6 hr): 88.97%
% Released (Bi-layer Tablets) ([2]; 0.1N HCl, 7 hr): 94.82%
% Released (Bi-layer Tablets) ([2]; 0.1N HCl, 8 hr): 97.06%
% Released (Homogenous Tablets) ([2]; 0.1N HCl, 1 hr): 16.63%
% Released (Homogenous Tablets) ([2]; 0.1N HCl, 2 hr): 39.40%
% Released (Homogenous Tablets) ([2]; 0.1N HCl, 3 hr): 60.60%
% Released (Homogenous Tablets) ([2]; 0.1N HCl, 4 hr): 78.36%
% Released (Homogenous Tablets) ([2]; 0.1N HCl, 5 hr): 90.30%
% Released (Homogenous Tablets) ([2]; 0.1N HCl, 6 hr): 96.38%
% Released (Homogenous Tablets) ([2]; 0.1N HCl, 7 hr): 99.14%
% Released (Homogenous Tablets) ([2]; 0.1N HCl, 8 hr): 100.26%

CN(C)CCCC1(c2ccc(F)cc2)OCc2cc(C#N)ccc21 (stereo not drawn) [Citalopram, citalopram]
AUC ([3]; both, human, in vivo, 20 mg): 1220 ng·h/mL
Cmax ([3]; both, human, in vivo, 20 mg): 67.9 ng/mL
MRT ([3]; both, human, in vivo, 20 mg): 48.6 h
Tmax ([3]; both, human, in vivo, 20 mg): 3.96 h
Vd/F ([3]; both, human, in vivo, 20 mg): 750 L
CL/F, Mean [3, 4]: 17.66 L/h
Cavg, Mean [3, 4]: 50.8 ng/mL
Cmin, Mean [3, 4]: 39.5 ng/mL
Fluctuation, Mean [3, 4]: 57.22%
Swing, Mean [3, 4]: 75.55%
CL/F, Mean [3, 5]: 11.04 L/h
Cavg, Mean [3, 5]: 78.2 ng/mL
Cmin, Mean [3, 5]: 61.6 ng/mL
Fluctuation, Mean [3, 5]: 48.46%
Swing, Mean [3, 5]: 62.15%

CNCCC[C@]1(c2ccc(F)cc2)OCc2cc(C#N)ccc21 [Desmethylcitalopram, desmethylcitalopram]
AUC0-τ, Mean [3, 4]: 445.9 ng·h/mL
Cavg, Mean [3, 4]: 18.6 ng/mL
Cmax, Mean [3, 4]: 21.7 ng/mL
Cmin, Mean [3, 4]: 16.3 ng/mL
Fluctuation, Mean [3, 4]: 28.93%
M/P Ratio, Mean [3, 4]: 0.4062
MRT, Mean [3, 4]: 98.54 h
Swing, Mean [3, 4]: 33.09%
Tmax, Mean [3, 4]: 5.46 h
AUC0-τ, Mean [3, 5]: 485.2 ng·h/mL
Cavg, Mean [3, 5]: 20.2 ng/mL
Cmax, Mean [3, 5]: 23.6 ng/mL
Cmin, Mean [3, 5]: 17.3 ng/mL
Fluctuation, Mean [3, 5]: 30.39%
M/P Ratio, Mean [3, 5]: 0.2814
MRT, Mean [3, 5]: 85.78 h
Swing, Mean [3, 5]: 35.98%
Tmax, Mean [3, 5]: 7.12 h

N#Cc1ccc2c(c1)COC2(CCCN)c1ccc(F)cc1 (stereo not drawn) [Didesmethylcitalopram, didesmethylcitalopram]
AUC0-τ, Mean [3, 4]: 92.04 ng·h/mL
Cavg, Mean [3, 4]: 3.84 ng/mL
Cmax, Mean [3, 4]: 4.40 ng/mL
Cmin, Mean [3, 4]: 3.42 ng/mL
Fluctuation, Mean [3, 4]: 26.43%
M/P Ratio, Mean [3, 4]: 0.09587
MRT, Mean [3, 4]: 258.96 h
Swing, Mean [3, 4]: 29.97%
Tmax, Mean [3, 4]: 6.41 h

OCCOCCN1CCN(C2=Nc3ccccc3Sc3ccccc32)CC1 [Quetiapine Fumarate, quetiapine fumarate]
solubility ([1]; 0.1N HCl, simulated gastric fluid): 41000 µg/mL
solubility ([1]; pH 4.5, aqueous buffer, pH 4.5): 3000 µg/mL
solubility ([1]; pH 6.8, aqueous buffer, pH 6.8): 300 µg/mL
% Released ([2]; Example 17 tablet, 0.1N HCl, 1 hr): 18%
% Released ([2]; Example 17 tablet, 0.1N HCl, 2 hr): 39%
% Released ([2]; Example 17 tablet, 0.1N HCl, 4 hr): 69%
% Released ([2]; Example 17 tablet, 0.1N HCl, 8 hr): 98%
% Released ([2]; Example 17 tablet, 0.1N HCl, 12 hr): 97%
% Released ([2]; Example 17 tablet, 0.1N HCl, 16 hr): 96%
% Released ([2]; Example 17 tablet, pH 6.8 phosphate buffer, 1 hr): 2%
% Released ([2]; Example 17 tablet, pH 6.8 phosphate buffer, 2 hr): 10%
% Released ([2]; Example 17 tablet, pH 6.8 phosphate buffer, 4 hr): 41%
% Released ([2]; Example 17 tablet, pH 6.8 phosphate buffer, 8 hr): 76%
% Released ([2]; Example 17 tablet, pH 6.8 phosphate buffer, 12 hr): 93%
% Released ([2]; Example 17 tablet, pH 6.8 phosphate buffer, 16 hr): 95%

COc1cccc(C2(O)CCCCC2CN(C)C)c1 (stereo not drawn) [Tramadol HCl, tramadol HCl]
% Released ([2]; Example 20 tablet, 0.1N HCl, 0.5 hr): 10%
% Released ([2]; Example 20 tablet, 0.1N HCl, 1 hr): 33%
% Released ([2]; Example 20 tablet, 0.1N HCl, 2 hr): 73%
% Released ([2]; Example 20 tablet, 0.1N HCl, 3 hr): 96%
% Released ([2]; Example 20 tablet, 0.1N HCl, 4 hr): 104%
% Released ([2]; Example 20 tablet, 0.1N HCl, 5 hr): 106%
% Released ([2]; Example 20 tablet, 0.1N HCl, 6 hr): 106%
% Released ([2]; Example 20 tablet, 0.1N HCl, 8 hr): 106%
% Released ([2]; Example 20 tablet, 0.1N HCl, 10 hr): 105%
% Released ([2]; Example 20 tablet, 0.1N HCl, 12 hr): 105%
% Released ([2]; Example 20 tablet, pH 6.8 phosphate buffer, 0.5 hr): 9%
% Released ([2]; Example 20 tablet, pH 6.8 phosphate buffer, 1 hr): 32%
% Released ([2]; Example 20 tablet, pH 6.8 phosphate buffer, 2 hr): 75%
% Released ([2]; Example 20 tablet, pH 6.8 phosphate buffer, 3 hr): 98%
% Released ([2]; Example 20 tablet, pH 6.8 phosphate buffer, 4 hr): 105%
% Released ([2]; Example 20 tablet, pH 6.8 phosphate buffer, 5 hr): 107%
% Released ([2]; Example 20 tablet, pH 6.8 phosphate buffer, 6 hr): 107%
% Released ([2]; Example 20 tablet, pH 6.8 phosphate buffer, 8 hr): 107%
% Released ([2]; Example 20 tablet, pH 6.8 phosphate buffer, 10 hr): 107%
% Released ([2]; Example 20 tablet, pH 6.8 phosphate buffer, 12 hr): 107%
% Release ([2]; Example 27 controlled release tablet (batch 1258-171), 2 hrs): 51%
% Release ([2]; Example 27 controlled release tablet (batch 1258-171), 4 hrs): 70%
% Release ([2]; Example 27 controlled release tablet (batch 1258-171), 8 hrs): 96%
% Release ([2]; Example 27 controlled release tablet (batch 1258-171), 10 hrs): 100%
% Release ([2]; Example 27 controlled release tablet (batch 1258-171), 16 hrs): 100%
% Release ([2]; Example 28 controlled release tablet (batch 1258-175), 2 hrs): 0%
% Release ([2]; Example 28 controlled release tablet (batch 1258-175), 4 hrs): 7%
% Release ([2]; Example 28 controlled release tablet (batch 1258-175), 8 hrs): 61%
% Release ([2]; Example 28 controlled release tablet (batch 1258-175), 10 hrs): 74%
% Release ([2]; Example 28 controlled release tablet (batch 1258-175), 16 hrs): 84%
% Released ([2]; Example 29 controlled release tablet (batch no. 08070T), 900 ml 0.1N HCl, USP Apparatus 1, 75 rpm, 37° C., 0.5 hr): 18%
% Released ([2]; Example 29 controlled release tablet (batch no. 08070T), 900 ml 0.1N HCl, USP Apparatus 1, 75 rpm, 37° C., 1 hr): 28%
% Released ([2]; Example 29 controlled release tablet (batch no. 08070T), 900 ml 0.1N HCl, USP Apparatus 1, 75 rpm, 37° C., 2 hr): 42%
% Released ([2]; Example 29 controlled release tablet (batch no. 08070T), 900 ml 0.1N HCl, USP Apparatus 1, 75 rpm, 37° C., 3 hr): 53%
% Released ([2]; Example 29 controlled release tablet (batch no. 08070T), 900 ml 0.1N HCl, USP Apparatus 1, 75 rpm, 37° C., 4 hr): 62%
% Released ([2]; Example 29 controlled release tablet (batch no. 08070T), 900 ml 0.1N HCl, USP Apparatus 1, 75 rpm, 37° C., 5 hr): 70%
% Released ([2]; Example 29 controlled release tablet (batch no. 08070T), 900 ml 0.1N HCl, USP Apparatus 1, 75 rpm, 37° C., 6 hr): 76%
% Released ([2]; Example 29 controlled release tablet (batch no. 08070T), 900 ml 0.1N HCl, USP Apparatus 1, 75 rpm, 37° C., 8 hr): 86%
% Released ([2]; Example 29 controlled release tablet (batch no. 08070T), 900 ml 0.1N HCl, USP Apparatus 1, 75 rpm, 37° C., 10 hr): 93%
% Released ([2]; Example 29 controlled release tablet (batch no. 08070T), 900 ml 0.1N HCl, USP Apparatus 1, 75 rpm, 37° C., 12 hr): 97%
% Released ([2]; Example 29 controlled release tablet (batch no. 08070T), 900 ml pH 6.8 phosphate buffer, USP Apparatus 1, 75 rpm, 37° C., 0.5 hr): 19%
% Released ([2]; Example 29 controlled release tablet (batch no. 08070T), 900 ml pH 6.8 phosphate buffer, USP Apparatus 1, 75 rpm, 37° C., 1 hr): 29%
% Released ([2]; Example 29 controlled release tablet (batch no. 08070T), 900 ml pH 6.8 phosphate buffer, USP Apparatus 1, 75 rpm, 37° C., 2 hr): 44%
% Released ([2]; Example 29 controlled release tablet (batch no. 08070T), 900 ml pH 6.8 phosphate buffer, USP Apparatus 1, 75 rpm, 37° C., 3 hr): 55%
% Released ([2]; Example 29 controlled release tablet (batch no. 08070T), 900 ml pH 6.8 phosphate buffer, USP Apparatus 1, 75 rpm, 37° C., 4 hr): 65%
% Released ([2]; Example 29 controlled release tablet (batch no. 08070T), 900 ml pH 6.8 phosphate buffer, USP Apparatus 1, 75 rpm, 37° C., 5 hr): 72%
% Released ([2]; Example 29 controlled release tablet (batch no. 08070T), 900 ml pH 6.8 phosphate buffer, USP Apparatus 1, 75 rpm, 37° C., 6 hr): 79%
% Released ([2]; Example 29 controlled release tablet (batch no. 08070T), 900 ml pH 6.8 phosphate buffer, USP Apparatus 1, 75 rpm, 37° C., 8 hr): 90%
% Released ([2]; Example 29 controlled release tablet (batch no. 08070T), 900 ml pH 6.8 phosphate buffer, USP Apparatus 1, 75 rpm, 37° C., 10 hr): 98%
% Released ([2]; Example 29 controlled release tablet (batch no. 08070T), 900 ml pH 6.8 phosphate buffer, USP Apparatus 1, 75 rpm, 37° C., 12 hr): 102%
